Test results taken from patent US8623661B2, “Iron chelating agent, method for producing same, method for determining amount of iron ions and method for trapping iron ions” (National University Corporation Asahikawa Medical College, priority 2008, dated 2014).

Tested on: iron nitrilotriacetate complex (Fe-NTA)
Experiment: Evaluation C: chelating ability in MOPS/acetonitrile solvent, Fe-NTA solution
Format: binding
Method: Evaluation was carried out by the following evaluation method C as to whether or not the iron chelating agent according to Examples 1 to 3 had chelating ability with iron in 3-morpholinopropanesulfonic acid (C7H15NO4S;MOPS) and acetonitrile solution as solvents used in high performance liquid chromatography (HPLC).
2.09 g of morpholinopropanesulfonic acid (C7H15NO4S; FW=209.26, Code 341-01801, Lot PX013, manufactured by Dojindo/Wako Corporation) was added to a 100 mL Erlenmeyer flask, 80 mL of ultrapure water (pure water produced by an ultrapure water production system manufactured by Millipore Corporation (Milli-Q); “Milli-Q water”) was added thereto and dissolved [pH 4.15 (24.4° C.)]. To this solution, 1N sodium hydroxide solution (1 mol/1 sodium hydroxide solution, Code 192-02175, Lot SEP7274, manufactured by Wako Pure Chemicals Industries) was added in 100 μl portions, the pH was adjusted to 7.0 and further Milli-Q water was made up to 100 mL in a measuring cylinder, whereby 100 mL of MOPS solution (pH 6.99) was prepared.
An iron chelating agent solution having an iron chelating agent concentration of 50 mM was prepared with respect to the iron chelating agent according to Examples 1 to 3, in the same manner as the preparation method of the iron chelating solution in evaluation A of the iron chelating agent.
Further, 100 mM of MOPS solution (pH6.99) prepared by the preparation method of the MOPS solution was used.
Furthermore, a stock solution of acetonitrile (C2H3N, FW=41.05, Code 347-06641, Lot WPI96, manufactured by Dojindo/Wako corporation) was used.
13.8 mL of Milli-Q water was taken in a 50 mL conical tube, 1.2 mL of each of the iron chelating agent solutions (Fe-Ser•Na (50 mM), Fe-His•Na (50 mM), Fe-Glu•Na (50 mM)) according to the iron chelating agents of Examples 1 to 3 was added, 1.0 mL of 100 mM MOPS solution was added thereto, and a further 4.0 mL of acetonitrile solution was added to produce an iron chelating solution using MOPS. The iron chelating agent solutions using MOPS and iron chelating agent according to Examples 1 to 3 were defined respectively as Fe-Ser•Na (MOPS solution)” (iron chelating agent according to
Example 1), “Fe-His•Na (MOPS solution)” (iron chelating agent according to Example 2), and “Fe-Glu•Na(MOPS solution)” (iron chelating agent according to Example 3).
Further, iron nitrilotriacetate complex solution (“Fe-NTA solution (20 mM)”) having a concentration of iron ions of 20 mM and iron nitrilotriacetate complex solution (“Fe-NTA solution (2 mM)”) having a concentration of iron ions of 2 mM were prepared, in the same manner as the preparation method of iron nitrilotriacetate complex solution in evaluation B of the iron chelating agent.
Further, Fe-NTA solution (20 mM) was added to and mixed with each of the iron chelating agent solutions [Fe-Ser•Na (MOPS solution), Fe-His•Na (MOPS solution), Fe-Glu•Na (MOPS solution)] using MOPS. […] Further, Fe-NTA solution (2 mM) was added and mixed thereto as described above.

O=C(O)C(CO)NCc1ccccc1O (centres unmarked) [Example 1, o-[(1-carboxy-2-hydroxyethyl)-amino-methyl]-phenol]
colour of the solution after mixing (Fe-NTA solution (2 mM) added to chelating agent MOPS solution (MOPS, acetonitrile)): dark brown-colored
colour of the solution after mixing (Fe-NTA solution (20 mM) added to chelating agent MOPS solution (MOPS, acetonitrile)): dark brown-colored
